The subject of data set [1] is St. John's wort plantlets. Kind of data set: Lithium accumulation and growth of St. John's wort plantlets on lithium-supplemented liquid basal medium. The format is in vivo, Hypericum perforatum. The protocol: St. John's wort seedlings were obtained from sterilized seeds germinated in a controlled environment. St. John's wort seeds were sterilized by immersing in a 70% ethanol solution for 5 s, followed by an immersion in a 30% solution of 5.4% sodium hypochlorite (Lilo Products, Hamilton, Ontario) in water with one drop of Tween 20 per 500 mL for 20 min, and a three times rinse in sterile distilled water. Sterile seeds were germinated and maintained on water agar (8 g·L^−1) for 16 days in darkness in a growth cabinet at 24° C. Individual seedlings were cultured in Magenta boxes on a medium containing MS medium (Murashige and Skoog, 1962), B5 vitamins (Gamborg et al 1968), 30 g·L^−1 sucrose and 3 g·L^−1 gellan gum (Gelrite, Schweitzerhall Inc., South Plainfield, N.J., USA). Seedling cultures were incubated in a growth cabinet with a 16 hour photoperiod under cool white light at 40–60 μmol·m^−2·s^−1. After 30 days, seedlings were excised from the Magenta boxes and subcultured into 125 mL flasks containing 25 mL of a basal medium containing MS medium (Murashige and Skoog, 1962), B5 vitamins (Gamborg et al 1968) and 30 g·L^−1 sucrose. […]
In a second series of experiments, the lithium accumulation of regenerated St. John's wort shoots was determined. […]
Samples were harvested from the cultures analysed for lithium with the same protocol as described above.

The next data set deals with Echinacea plantlets. As to the kind of experiment: Zinc uptake and growth of Echinacea plantlets on zinc-supplemented liquid basal medium. It counts as in vivo, Echinacea purpurea. The method, then:
Germinating seedlings were cultured onto MS medium (Murashige & Skoog, 1962) with B5 vitamins (Gamborg et al 1968), 30 g·L^−1 sucrose and 3 g·L^−1 gelrite in Magenta boxes and incubated in a controlled environment chamber for 30 days with a 16 hour photoperiod under cool white light at 40–60 μmol·m^−2·s^−1. Mature seedlings were subcultured into 125 mL flasks containing 25 mL of basal medium supplemented with zinc at 0, 50, 100, 150 or 200 mg·L^−1 and incubated in the same chamber for 30 days (liquid baslal medium, Table 1).
In experiments designed to determine the zinc uptake in micropropagated Echinacea plantlets, petiole explants, 2 cm in length were excised from the 4 week old sterile Echinacea plants and subcultured onto induction medium comprising MS media supplemented with thidiazuron (TDZ) (0.5, 1, 5 and 10 μmol·L^−1) or BAP (1, 2.5, 5, 7.5, 10, 12.5 and 15 μmol·L^−1) alone or in combination with indoleacetic acid (IAA) at concentrations of 5 and 10 μmol·L^−1. […] Regeneration was quantified after 25 and 33 days for all petiole cultures and roots after 33 and 42 days of culture. […]
Plants were harvested on day 45 after treatments were initiated. […] Fresh weight of individual plantlets was determined prior to air drying at 90° C. for 48 hours. […] The zinc content of the samples was determined using an AA55 Varian Atomic Absorption Spectrophotometer or by ICP Analysis. […]

In the next data set the test system is livestock growth. Conditions: animal feeds supplemented with 3000 ppm inorganic zinc; cited from earlier work.
Data set [2] has as its system Echinacea purpurea petiole explants. As to the kind of experiment: Regeneration of Echinacea purpurea petiole explants on induction medium (BAP, TDZ, IAA). It counts as cell-based. The settings on record: for Number of regenerants/petiole: after 33 days of culture. The method, then: The design of all experiments was a complete randomized block and treatments consisted of five replications. All the experiments were repeated at least twice and the data were analyzed using SAS Version 6.12 (SAS Inc., 1995). Significant differences between means were assessed by a Student-Neuman-Keulls means separation test at P≦0.05.
Germinating seedlings were cultured onto MS medium (Murashige & Skoog, 1962) with B5 vitamins (Gamborg et al 1968), 30 g·L^−1 sucrose and 3 g·L^−1 gelrite in Magenta boxes. Petiole explants, 2 cm in length were excised from 4 week old sterile Echinacea purpurea plants and cultured onto induction medium comprising MS media supplemented with thidiazuron (TDZ) (0.5, 1, 5 and 10 μmol·L^−1) or BAP (1, 2.5, 5, 7.5, 10, 12.5 and 15 μmol·L^−1). TDZ was added to the media at concentrations of 0.5 and 1.0 μmmol·L^−1 in combination with indole acetic acid (IAA, an auxin) at concentrations of 5 and 10 μmol·L^−1. Explants cultured on media containing TDZ and IAA were subcultured onto MS basal media after 23 days while those cultured on media containing higher concentrations of TDZ were subcultured onto MS basal media after 4 and 8 days. All treatments consisted of 10 plates per treatment and 6 explants per plate. Treatments were incubated in a growth cabinet with a 16 hour photoperiod under cool white light at 40–60 μmol·m^−2·s^−1. Regeneration was quantified after 25 and 33 days for all petiole cultures and roots after 33 and 42 days of culture. The resulting regenerants were excised from petioles and subcultured onto MS basal media in test tubes for germination after 32 days of culture.

Data set [3] deals with uptake of serotonin, dopamine, noradrenaline, GABA and L-glutamate. The settings on record: animal cell cultures; cited from earlier work.

Marks after values point to notes of the source that are not given here.

Consider `[Li]` [lithium], for which, in data set [1] (all treatment levels (0–200 mg·L^−1 lithium)), the appearance of plantlets entry is recorded as “appeared healthy”. For the same compound, the growth rate result in data set [1] (lithium supplementation of the culture medium, all treatment levels) was “unaffected”.
Take `[Zn]` [zinc]: the appearance of plants result in the data set on Echinacea plantlets (50, 100 and 150 mg·L^−1 zinc treatment groups) was “appeared normal and healthy”. In the data set on Echinacea plantlets (higher concentrations of zinc in the medium (above 150 mg·L^−1)), the plantlet growth entry is listed as “some inhibition of growth was observed”. In addition, the “muscle and protein accretion and rate of growth” value with livestock growth was “more rapid muscle and protein accretion and an overall acceleration in the rate of growth”.
In the case of `c1ccc(CNc2ncnc3[nH]cnc23)cc1` [BAP, benzylaminopurine], the Number of regenerants/petiole is listed as 5.4^ab in data set [2] (BAP 1 μmol·L^−1); 8.1^a in data set [2] (BAP 2.5 μmol·L^−1); 6.6^ab in data set [2] (BAP 5 μmol·L^−1); 5.2^ab in data set [2] (BAP 7.5 μmol·L^−1); 3.9^b in data set [2] (BAP 10 μmol·L^−1); 5.2^ab in data set [2] (BAP 12.5 μmol·L^−1). For the same compound, the Number of regenerants/petiole in data set [2] (BAP 15 μmol·L^−1) is recorded as 5.5^ab. For the same compound, in data set [2] (BAP as the sole growth regulating compound, all concentrations), the “de novo shoot formation” value is given as “induced de nova shoot formation at all concentrations”. In addition, the “callus formation and elongation of the petioles” value in data set [2] (culture medium supplemented with BAP) was “induce callus formation and elongation of the petioles”.
On to hyperforin, for which, in data set [3], the “uptake of serotonin, dopamine, noradrenaline, GABA and L-glutamate” value is “inhibition of uptake”.

Values taken from US7005298B1, “Micropropagation and production of phytopharmaceutical plants” (priority 1999, dated 2006).
